Results as given in patent US4870002A, “Method of prevention of oxidative injury to cells” (priority 1985, dated 1989).
Entries after “also recorded” stand apart in the source; their conditions may differ.

Assays:
horseradish peroxidase = biological target: T1, horseradish peroxidase (Armoracia rusticana, UniProt P00433); assay: Inhibition of horseradish peroxidase; assay type: biochemical; conditions: read-out: K1
T1 sequence (P00433 31-338 limits assumed): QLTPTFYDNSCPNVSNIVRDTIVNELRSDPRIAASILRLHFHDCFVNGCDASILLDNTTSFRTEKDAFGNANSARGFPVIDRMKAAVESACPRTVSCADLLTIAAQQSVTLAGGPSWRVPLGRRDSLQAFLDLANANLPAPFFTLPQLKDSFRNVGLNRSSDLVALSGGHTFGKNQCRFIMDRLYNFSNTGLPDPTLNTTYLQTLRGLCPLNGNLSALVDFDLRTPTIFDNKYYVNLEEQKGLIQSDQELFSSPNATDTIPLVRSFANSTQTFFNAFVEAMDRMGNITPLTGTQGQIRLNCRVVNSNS

Novikoff hepatoma = assay: Effect of peroxidase inhibitor on ICCOPS-promoted hepatoma regression; assay type: in vivo, rat
Description: Four of the animals were also injected with 100 μg of 3-aminotyrosine.

[1] = test system: L5178Y murine lymphosarcoma cells; assay: Survival after gamma irradiation by colony formation in soft agar; assay type: cell-based
Description: The remainder of the cell suspension after irradiation was used for determination of survival by colony formation in soft agar. For each dose, based on estimated survival probability, different numbers of cells were distributed in soft agar suspension (0.4% DIFCO Noble Agar) into 100 mm petri dishes. The dishes were briefly chilled to gel the agar, and then after brief warming in the laminar flow hood, placed in the 37° C. humidified CO2 incubator. The dishes were incubated for 11 days, and the number of colonies were determined using an Artek Automatic Colony Counter.
For the control and each 3-aminotyrosine and radiation dose, the percent cloning efficiency (% CE) was determined by dividing the number of colonies counted at 11 days by the number of cells seeded into the agar, times 100. The 0 dose % CE value was taken to be 100% survival for that chemical. The percent (%) survival reported was calculated by dividing the % CE after a given dose of radiation by the 0 dose % CE, times 100.
THMG/THG treated L5178Y cells were mass cultured and the cell density determined. Aliquots of the cell suspension with enough cells to give 300,000 cells per ml in 60 ml (1.8×10^7 cells) were distributed into three 50 ml centrifuge tubes, and after centrifugation, the original growth medium was discarded. The cells were resuspended in GIBCO custom formulation medium which had been prepared without phenol red. The cells were then washed one more time by centrifugation and resuspended again in 10 ml of the phenol red-free medium. These 10 ml suspensions of cells containing 1.8×10^7 cells were then transferred into three flasks already containing 50 ml of phenol red-free medium, distilled water, and either 100 nanomoles/ml or 2 micromoles/ml solutions of 3-aminotyrosine. The exposure system was treated as light sensitive (i.e., procedures were performed under gold light or reduced lighting).
Immediately after irradiation was completed, the cells were centrifuged, washed twice with F10p, and resuspended in 10 ml of F10p. The cell density was again determined by Coulter counter. […] After 11 days incubation at 37° C., colonies were counted and cell survival was determined.

pig RBCs = assay: Thermal fragility / hemolysis of RBCs (410 nm absorbance of supernatant); assay type: cell-based
Description: Blood was collected from Landrace-Duroc swine from a closed herd. Pigs from this herd had previously expressed episodes of porcine stress syndrome (malignant hyperthermia) following halothane anesthesia. The blood was collected into acidic citrated dextrose solution in standard blood bags. The blood was diluted 1:10 in phosphate (0.1M) buffered saline (PBS), pH 7.4, in 10 ml aliquots, centrifuged in a clinical centrifuge, and the erythrocytes were resuspended in fresh PBS. The cells were stored at 4° C. until used in the various assays. The post-collection chronological age of the RBCs used for a particular assay is noted in the results for each assay. The cells were counted in an automated cell counter (Coulter ZBI, Coulter Electronics, Inc., Hialeah, Fla. 33010).
Red blood cells were heated in 1 or 1.5 ml aliquots of PBS pH 7.4 with or without additional reagents in cellulose nitrate or polypropylene centrifuge tubes. Two concentrations of cells were used as indicated in the results. Heating was accomplished by three methods: microwave radiation, hot air, or water bath heating. The microwave device was a circularly polarized waveguide powered by a 1-kw S-band (microwave) amplifier (Model 10704,MCL, Inc., La Grange, Ill.). The heating of the sample at a specific absorption rate (SAR) of 91±4 W/kg (continuous wave (CW), 2450MHz) was offset by an air-cooling system that maintained a constant temperature. This system has been previously described in greater detail in Kiel, J. L. and D. N. Erwin, "Microwave and thermal interactions with oxidative hemolysis", 16 Physiol. Chem. Phys. Med. NMR, 317-323 (1984), which reference is hereby incorporated in its entirety by this specific reference thereto. […] The temperature was held within ±0.2° C. by this system. In the absence of microwave radiation, the temperature was held constant by hot air alone. The microwave/hot air system was brought to 37° C. for 15 min. prior to raising the temperature to 43° C. by microwaves or hot hot air. The water bath heating held the temperature within ±0.5° C. Heating times were 10, 15, or 30 min. The temperatures examined were 37°, 43°, 45°, or 48°.
Hemoglobin released into the supernatants of the heated cells were determined by the method described in the above-incorporated reference of Kiel and Erwin (1984). In brief, the supernatants were collected following centrifugation in a clinical centrifuge, diluted 1:2 in PBS, pH 7.4, and the optical absorbances at 410 nm were determined in a dual beam spectrophotometer. Pyruvate, lactate, inosine, hydrogen peroxide, mimosine, and/or 3-amino-L-tyrosine were added to the samples as indicated in Tables 1-3 and 9-12. All reagents were diluted in PBS and the final volumes of the samples were constant.

Nc1cc(C[C@H](N)C(=O)O)ccc1O [3-aminotyrosine, 3-amino-L-tyrosine]
Ki (horseradish peroxidase): 5 µM | effect on the action of ICCOPS, in words (Novikoff hepatoma; 100 μg injected into ICCOPS-treated hepatoma-bearing rats): inhibited the action of ICCOPS | outcome, in words (Novikoff hepatoma; four rats receiving ICCOPS and 100 μg 3-aminotyrosine): eventually died of the tumor | Ratio of Percent Survival, 3-Aminotyrosine/Control ([1]; Sixteen hour incubation, 250 rads, 1000 cells seeded, 2 micromoles/ml): 0.84 | Ratio of Percent Survival, 3-Aminotyrosine/Control ([1]; Sixteen hour incubation, 250 rads, 1000 cells seeded, 100 nanomoles/ml): 0.81 | Ratio of Percent Survival, 3-Aminotyrosine/Control ([1]; Sixteen hour incubation, 250 rads, 2000 cells seeded, 2 micromoles/ml): 0.94 | Ratio of Percent Survival, 3-Aminotyrosine/Control ([1]; Sixteen hour incubation, 250 rads, 2000 cells seeded, 100 nanomoles/ml): 0.85 | Ratio of Percent Survival, 3-Aminotyrosine/Control ([1]; Sixteen hour incubation, 500 rads, 1000 cells seeded, 2 micromoles/ml): 1.20 | Ratio of Percent Survival, 3-Aminotyrosine/Control ([1]; Sixteen hour incubation, 500 rads, 1000 cells seeded, 100 nanomoles/ml): 0.63 | Ratio of Percent Survival, 3-Aminotyrosine/Control ([1]; Sixteen hour incubation, 500 rads, 2000 cells seeded, 2 micromoles/ml): 1.59 | Ratio of Percent Survival, 3-Aminotyrosine/Control ([1]; Sixteen hour incubation, 500 rads, 2000 cells seeded, 100 nanomoles/ml): 0.98 | Ratio of Percent Survival, 3-Aminotyrosine/Control ([1]; Sixteen hour incubation, 1000 rads, 2.5 × 10^5 cells seeded, 2 micromoles/ml): 1.95 | Ratio of Percent Survival, 3-Aminotyrosine/Control ([1]; Sixteen hour incubation, 1000 rads, 2.5 × 10^5 cells seeded, 100 nanomoles/ml): 4.91 | Ratio of Percent Survival, 3-Aminotyrosine/Control ([1]; Sixteen hour incubation, 1000 rads, 5.0 × 10^5 cells seeded, 2 micromoles/ml): 3.22 | Ratio of Percent Survival, 3-Aminotyrosine/Control ([1]; Sixteen hour incubation, 1000 rads, 5.0 × 10^5 cells seeded, 100 nanomoles/ml): 1.27 | Ratio of Percent Survival, 3-Aminotyrosine/Control ([1]; Zero hour incubation, 250 rads, 2 micromoles/ml): 0.89 | Ratio of Percent Survival, 3-Aminotyrosine/Control ([1]; Zero hour incubation, 250 rads, 100 nanomoles/ml): 0.85 | Ratio of Percent Survival, 3-Aminotyrosine/Control ([1]; Zero hour incubation, 500 rads, 2 micromoles/ml): 0.63 | Ratio of Percent Survival, 3-Aminotyrosine/Control ([1]; Zero hour incubation, 500 rads, 100 nanomoles/ml): 0.70 | Ratio of Percent Survival, 3-Aminotyrosine/Control ([1]; Zero hour incubation, 1000 rads, 2 micromoles/ml): 0.51 | Ratio of Percent Survival, 3-Aminotyrosine/Control ([1]; Zero hour incubation, 1000 rads, 100 nanomoles/ml): 0.56 | effect on cell survival after irradiation, in words ([1]; cells preincubated for 16 hours): protective of cell survival | Percent difference from controls (corrected), 4° C. (pig RBCs; 74 μM, 48° C. 30 min): -0.8% | Percent difference from controls (corrected), 48° C. (pig RBCs; 74 μM, 48° C. 30 min): -38.3% | 410 nm absorbance, Actual (pig RBCs; 74 μM, 48° C. 30 min, RBCs 20 days post collection, 1.4×10^9 per ml): 0.491 ± 0.032 | 410 nm absorbance, Corrected (pig RBCs; 74 μM, 48° C. 30 min, corrected for RBC dilution): 0.368 | effect on thermal hemolysis, in words (pig RBCs; 74 μM, 48° C. for 30 min): suppressed the thermal hemolysis to the level of the 4 °C control; also recorded: powerful inhibitor | effect on thermal hemolysis, in words (pig RBCs; 1.49 mM, 45° C.): did not significantly inhibit | hemolysis, optical density of supernatants (1:2 dilution) at 410 nm (pig RBCs; 3-amino-L-tyrosine and H2O2 at 37° C., 4° C. control 0.243±0.004): 0.261±0.007 | hemolytic value (pig RBCs; preincubation with 3-amino-L-tyrosine alone (1.49 mM, 4° C., 72 hours)): 0.452±0.02 | spontaneous hemolysis reading (pig RBCs; pyruvate and 3-amino-L-tyrosine, 37° C.): 0.326±0.03
